Data as given in ChEMBL document CHEMBL5291721, “A preclinical secondary pharmacology resource illuminates target-adverse drug reaction associations of marketed drugs” (Nat Commun, 2023).

What was measured:
[1] = molecular target: T1, Alpha-2C adrenergic receptor (Homo sapiens, UniProt P18825); type: functional
T1 sequence (P18825 whole entry): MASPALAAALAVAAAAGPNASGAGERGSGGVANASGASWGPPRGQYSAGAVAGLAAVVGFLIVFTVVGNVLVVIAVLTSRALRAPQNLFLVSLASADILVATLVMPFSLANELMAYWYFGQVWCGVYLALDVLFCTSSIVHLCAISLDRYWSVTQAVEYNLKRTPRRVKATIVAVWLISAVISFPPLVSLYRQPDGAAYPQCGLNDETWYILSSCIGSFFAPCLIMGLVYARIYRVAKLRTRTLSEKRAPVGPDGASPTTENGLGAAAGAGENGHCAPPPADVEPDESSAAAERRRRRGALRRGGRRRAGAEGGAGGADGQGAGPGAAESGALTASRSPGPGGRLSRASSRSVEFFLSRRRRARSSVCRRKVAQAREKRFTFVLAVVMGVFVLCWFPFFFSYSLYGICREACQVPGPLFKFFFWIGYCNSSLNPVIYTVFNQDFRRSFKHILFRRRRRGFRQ

[2] = molecular target: Beta-2 adrenergic receptor (Homo sapiens, UniProt P07550); type: functional, cell-based
Beta-2 adrenergic receptor, sequence (P07550 whole entry): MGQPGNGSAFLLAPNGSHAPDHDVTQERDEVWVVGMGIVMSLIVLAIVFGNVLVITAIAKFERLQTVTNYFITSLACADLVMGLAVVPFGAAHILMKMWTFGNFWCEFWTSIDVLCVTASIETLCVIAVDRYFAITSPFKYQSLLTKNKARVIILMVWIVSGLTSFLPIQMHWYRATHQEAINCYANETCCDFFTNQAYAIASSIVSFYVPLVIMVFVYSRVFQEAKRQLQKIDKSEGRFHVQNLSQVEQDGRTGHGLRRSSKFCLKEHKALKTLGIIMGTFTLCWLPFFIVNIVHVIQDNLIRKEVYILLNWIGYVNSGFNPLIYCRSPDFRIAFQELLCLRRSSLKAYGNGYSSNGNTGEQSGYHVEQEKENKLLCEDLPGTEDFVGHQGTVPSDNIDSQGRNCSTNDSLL

Cannabinoid receptor 1 [3] = molecular target: T2, Cannabinoid receptor 1 (Homo sapiens, UniProt P21554); type: functional, cell-based
T2 sequence (P21554 whole entry): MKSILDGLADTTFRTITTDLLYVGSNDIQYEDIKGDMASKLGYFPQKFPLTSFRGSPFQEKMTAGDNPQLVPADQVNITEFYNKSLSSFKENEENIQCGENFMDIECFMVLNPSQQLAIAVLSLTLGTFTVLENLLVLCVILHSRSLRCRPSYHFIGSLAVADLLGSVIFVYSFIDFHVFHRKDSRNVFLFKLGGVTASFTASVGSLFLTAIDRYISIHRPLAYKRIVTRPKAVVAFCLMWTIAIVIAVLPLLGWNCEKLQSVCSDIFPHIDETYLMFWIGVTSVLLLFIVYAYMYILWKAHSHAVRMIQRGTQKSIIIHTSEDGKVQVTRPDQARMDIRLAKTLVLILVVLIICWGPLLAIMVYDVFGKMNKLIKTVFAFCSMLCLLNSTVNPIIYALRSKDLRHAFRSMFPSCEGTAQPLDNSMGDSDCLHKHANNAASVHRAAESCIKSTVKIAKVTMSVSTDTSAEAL

Cannabinoid receptor 1 [4] = molecular target: T2, Cannabinoid receptor 1; type: functional, cell-based; remark: listed apart in the source
Endothelin-1 receptor = molecular target: T3, Endothelin-1 receptor (Homo sapiens, UniProt P25101)
T3 sequence (P25101 whole entry): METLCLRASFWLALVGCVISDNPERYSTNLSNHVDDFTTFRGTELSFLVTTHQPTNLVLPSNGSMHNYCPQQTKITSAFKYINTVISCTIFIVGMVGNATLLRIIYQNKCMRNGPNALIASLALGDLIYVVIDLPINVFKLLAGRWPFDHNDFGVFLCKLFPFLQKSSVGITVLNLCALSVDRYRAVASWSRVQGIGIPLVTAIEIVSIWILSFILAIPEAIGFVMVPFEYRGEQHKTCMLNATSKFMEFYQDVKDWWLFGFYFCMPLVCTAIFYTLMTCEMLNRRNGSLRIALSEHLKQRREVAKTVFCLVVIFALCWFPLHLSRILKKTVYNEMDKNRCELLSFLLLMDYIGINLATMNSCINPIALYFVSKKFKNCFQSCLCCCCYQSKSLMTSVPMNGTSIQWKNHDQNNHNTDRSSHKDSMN

Estrogen receptor = molecular target: T4, Estrogen receptor (Homo sapiens, UniProt P03372)
T4 sequence (P03372 whole entry): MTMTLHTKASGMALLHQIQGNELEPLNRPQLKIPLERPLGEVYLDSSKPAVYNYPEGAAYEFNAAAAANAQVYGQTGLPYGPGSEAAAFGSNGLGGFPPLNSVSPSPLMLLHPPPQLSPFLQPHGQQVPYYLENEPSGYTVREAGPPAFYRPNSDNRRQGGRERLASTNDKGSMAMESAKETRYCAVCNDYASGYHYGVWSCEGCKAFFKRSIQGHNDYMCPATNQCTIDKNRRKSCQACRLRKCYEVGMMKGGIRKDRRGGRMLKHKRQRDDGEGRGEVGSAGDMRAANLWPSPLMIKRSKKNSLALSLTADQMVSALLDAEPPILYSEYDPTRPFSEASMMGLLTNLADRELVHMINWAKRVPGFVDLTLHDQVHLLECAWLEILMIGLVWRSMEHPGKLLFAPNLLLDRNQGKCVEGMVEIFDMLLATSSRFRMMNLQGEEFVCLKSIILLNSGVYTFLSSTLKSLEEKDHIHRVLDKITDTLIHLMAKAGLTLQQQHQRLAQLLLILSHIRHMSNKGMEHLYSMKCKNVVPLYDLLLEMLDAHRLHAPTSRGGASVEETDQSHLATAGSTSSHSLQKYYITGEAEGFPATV

[5] = molecular target: 5-hydroxytryptamine receptor 2A (Homo sapiens, UniProt P28223); type: functional, cell-based
5-hydroxytryptamine receptor 2A, sequence (P28223 whole entry): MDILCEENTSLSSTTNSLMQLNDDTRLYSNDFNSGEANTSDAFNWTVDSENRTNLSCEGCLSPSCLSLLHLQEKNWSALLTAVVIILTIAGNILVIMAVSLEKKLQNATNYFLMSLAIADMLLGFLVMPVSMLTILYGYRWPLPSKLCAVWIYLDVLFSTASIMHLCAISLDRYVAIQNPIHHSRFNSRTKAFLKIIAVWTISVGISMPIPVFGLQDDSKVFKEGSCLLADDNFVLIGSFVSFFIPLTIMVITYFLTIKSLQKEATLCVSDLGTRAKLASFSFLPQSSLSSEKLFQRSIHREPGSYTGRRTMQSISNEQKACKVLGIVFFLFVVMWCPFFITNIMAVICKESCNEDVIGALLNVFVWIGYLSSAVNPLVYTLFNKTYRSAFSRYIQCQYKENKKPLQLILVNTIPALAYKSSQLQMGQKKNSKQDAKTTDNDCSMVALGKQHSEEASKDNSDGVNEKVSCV

[6] = molecular target: Voltage-gated inwardly rectifying potassium channel KCNH2 (Homo sapiens, UniProt Q12809); type: functional
Voltage-gated inwardly rectifying potassium channel KCNH2, sequence (Q12809 whole entry): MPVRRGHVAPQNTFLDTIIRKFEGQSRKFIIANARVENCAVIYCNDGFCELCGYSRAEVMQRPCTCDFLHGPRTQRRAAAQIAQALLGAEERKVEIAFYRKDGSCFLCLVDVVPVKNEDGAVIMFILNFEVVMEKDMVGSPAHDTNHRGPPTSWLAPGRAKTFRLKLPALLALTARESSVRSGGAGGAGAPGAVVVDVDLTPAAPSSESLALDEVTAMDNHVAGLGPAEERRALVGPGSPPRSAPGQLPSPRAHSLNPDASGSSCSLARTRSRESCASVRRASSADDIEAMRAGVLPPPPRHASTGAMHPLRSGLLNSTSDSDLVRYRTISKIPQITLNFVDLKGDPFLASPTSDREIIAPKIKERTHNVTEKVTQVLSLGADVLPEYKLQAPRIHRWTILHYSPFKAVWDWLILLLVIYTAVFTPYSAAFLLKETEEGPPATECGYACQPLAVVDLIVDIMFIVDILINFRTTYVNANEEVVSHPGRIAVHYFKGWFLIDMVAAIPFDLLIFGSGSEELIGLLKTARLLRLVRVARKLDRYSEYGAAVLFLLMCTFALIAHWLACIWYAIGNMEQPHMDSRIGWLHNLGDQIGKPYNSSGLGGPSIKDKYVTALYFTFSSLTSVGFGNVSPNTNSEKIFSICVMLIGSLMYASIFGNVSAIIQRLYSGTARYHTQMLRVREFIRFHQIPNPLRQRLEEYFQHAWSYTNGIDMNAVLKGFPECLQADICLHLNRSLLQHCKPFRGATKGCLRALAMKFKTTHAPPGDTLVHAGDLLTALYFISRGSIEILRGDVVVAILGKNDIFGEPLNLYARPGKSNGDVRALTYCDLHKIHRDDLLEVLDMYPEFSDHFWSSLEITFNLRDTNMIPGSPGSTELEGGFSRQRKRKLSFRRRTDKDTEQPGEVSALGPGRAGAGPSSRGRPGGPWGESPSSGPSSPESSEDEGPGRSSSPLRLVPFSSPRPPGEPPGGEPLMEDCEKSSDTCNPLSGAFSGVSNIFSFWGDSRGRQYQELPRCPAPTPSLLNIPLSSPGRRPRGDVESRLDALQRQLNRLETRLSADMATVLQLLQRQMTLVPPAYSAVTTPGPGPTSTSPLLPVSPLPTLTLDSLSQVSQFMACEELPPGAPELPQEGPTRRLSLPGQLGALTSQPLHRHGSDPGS

Melanocortin receptor 3 = Melanocortin receptor 3 (Homo sapiens, UniProt P41968)
Melanocortin receptor 3, sequence (P41968 whole entry): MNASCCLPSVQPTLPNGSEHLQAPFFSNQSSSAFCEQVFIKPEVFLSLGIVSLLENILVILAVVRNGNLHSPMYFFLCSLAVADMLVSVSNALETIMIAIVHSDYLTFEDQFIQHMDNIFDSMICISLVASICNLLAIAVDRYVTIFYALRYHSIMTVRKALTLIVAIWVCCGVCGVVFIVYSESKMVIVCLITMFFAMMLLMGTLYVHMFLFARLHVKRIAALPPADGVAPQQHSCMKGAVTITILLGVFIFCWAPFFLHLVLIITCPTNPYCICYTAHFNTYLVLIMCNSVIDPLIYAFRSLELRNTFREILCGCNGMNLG

Motilin receptor = Motilin receptor (Homo sapiens, UniProt O43193)
Motilin receptor, sequence (O43193 whole entry): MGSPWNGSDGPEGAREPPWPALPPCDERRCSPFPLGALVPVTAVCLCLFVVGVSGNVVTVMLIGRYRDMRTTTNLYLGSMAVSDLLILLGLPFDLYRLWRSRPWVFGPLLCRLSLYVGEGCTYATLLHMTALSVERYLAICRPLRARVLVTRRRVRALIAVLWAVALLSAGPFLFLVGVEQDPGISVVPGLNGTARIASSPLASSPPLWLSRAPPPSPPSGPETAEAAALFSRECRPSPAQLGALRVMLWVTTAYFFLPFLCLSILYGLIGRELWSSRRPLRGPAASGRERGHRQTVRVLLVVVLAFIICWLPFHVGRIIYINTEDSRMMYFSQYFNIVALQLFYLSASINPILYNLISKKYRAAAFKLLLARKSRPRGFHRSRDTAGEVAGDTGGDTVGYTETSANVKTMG

[7] = molecular target: T5, Alpha-1A adrenergic receptor (Homo sapiens, UniProt P35348)
T5 sequence (P35348 whole entry): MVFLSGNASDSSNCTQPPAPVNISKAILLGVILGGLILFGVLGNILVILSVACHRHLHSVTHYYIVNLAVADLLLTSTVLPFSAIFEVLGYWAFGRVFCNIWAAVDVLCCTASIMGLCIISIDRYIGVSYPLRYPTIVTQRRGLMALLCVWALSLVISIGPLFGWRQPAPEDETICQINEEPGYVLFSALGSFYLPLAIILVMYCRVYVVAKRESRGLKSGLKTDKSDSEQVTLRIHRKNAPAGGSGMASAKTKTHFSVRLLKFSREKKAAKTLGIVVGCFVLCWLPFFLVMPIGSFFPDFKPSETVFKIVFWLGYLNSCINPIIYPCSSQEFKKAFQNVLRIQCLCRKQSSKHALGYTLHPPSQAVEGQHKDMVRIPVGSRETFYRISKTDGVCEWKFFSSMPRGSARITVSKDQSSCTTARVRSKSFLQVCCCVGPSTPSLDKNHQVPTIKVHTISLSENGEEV

Cannabinoid receptor 1 [8] = molecular target: T2, Cannabinoid receptor 1
Melanocortin receptor 4 = Melanocortin receptor 4 (Homo sapiens, UniProt P32245)
Melanocortin receptor 4, sequence (P32245 whole entry): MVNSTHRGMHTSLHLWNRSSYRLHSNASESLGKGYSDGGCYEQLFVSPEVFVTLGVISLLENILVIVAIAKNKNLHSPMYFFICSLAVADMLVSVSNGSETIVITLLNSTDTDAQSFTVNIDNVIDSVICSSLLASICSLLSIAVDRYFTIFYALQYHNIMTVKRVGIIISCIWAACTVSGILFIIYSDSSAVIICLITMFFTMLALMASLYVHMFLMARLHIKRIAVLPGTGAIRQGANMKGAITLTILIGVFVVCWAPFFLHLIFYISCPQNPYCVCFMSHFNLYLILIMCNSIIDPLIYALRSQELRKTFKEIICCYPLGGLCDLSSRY

[9] = molecular target: T6, 5-hydroxytryptamine receptor 1A (Homo sapiens, UniProt P08908); type: functional, cell-based
T6 sequence (P08908 whole entry): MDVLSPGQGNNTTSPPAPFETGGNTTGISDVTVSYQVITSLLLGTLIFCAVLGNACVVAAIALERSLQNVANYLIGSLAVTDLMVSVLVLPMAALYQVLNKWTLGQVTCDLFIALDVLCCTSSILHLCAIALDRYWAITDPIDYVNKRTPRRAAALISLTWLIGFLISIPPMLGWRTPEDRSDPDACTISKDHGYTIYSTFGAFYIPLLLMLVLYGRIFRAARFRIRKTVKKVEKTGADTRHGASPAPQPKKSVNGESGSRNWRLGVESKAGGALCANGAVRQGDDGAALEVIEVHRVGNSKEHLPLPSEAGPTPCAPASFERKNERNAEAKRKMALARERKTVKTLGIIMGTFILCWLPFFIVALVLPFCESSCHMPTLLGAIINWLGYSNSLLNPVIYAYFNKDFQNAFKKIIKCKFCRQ
Further: assay procedure not described here.

Row | Compound | AC50 [1] [µM] | AC50 [2] [µM] | AC50 (Cannabinoid receptor 1 [3]) [µM] | AC50 (Cannabinoid receptor 1 [4]) [µM] | AC50 (Endothelin-1 receptor) [µM] | AC50 (Estrogen receptor) [µM] | AC50 [5] [µM] | AC50 [6] [µM] | AC50 (Melanocortin receptor 3) [µM] | AC50 (Motilin receptor) [µM] | AC50 [7] [µM] | AC50 (Cannabinoid receptor 1 [8]) [µM] | AC50 (Melanocortin receptor 4) [µM] | AC50 [9] [µM]
1 | CC(=O)O[C@H](CC(=O)[O-])C[N+](C)(C)C [ACETYLCARNITINE] | > 30 | > 30 | > 30 | > 30 | > 30 | > 30 | > 30 | > 30 | > 30 | > 30 |  |  |  | 
2 | CCN(CC)CCN1C(=O)CN=C(c2ccccc2F)c2cc(Cl)ccc21 [FLURAZEPAM] | > 10 | > 30 |  |  |  | > 30 |  | 0.896 | > 30 | > 10 | > 10 | > 10 | > 30 | 
3 | O=C(O)c1ccccc1Nc1cc(Cl)ccc1C(=O)O [LOBENZARIT] | > 30 | > 30 | > 30 | > 30 | > 30 | > 30 | > 30 | > 30 | > 30 | > 30 |  |  |  | 
4 | Oc1ccc2c(c1)[C@@]13CCCC[C@@]1(O)[C@@H](C2)N(CC1CCC1)CC3 [BUTORPHANOL] | > 30 | > 30 | > 30 | > 30 | > 30 | > 30 | > 30 | 12 | > 30 | > 30 |  |  |  | > 30
5 | CC(=O)[C@]1(O)Cc2c(O)c3c(c(O)c2[C@@H](O[C@H]2C[C@H](N)[C@H](O)[C@H](C)O2)C1)C(=O)c1ccccc1C3=O [IDARUBICIN] |  | > 30 |  |  | > 30 |  |  | 20.7 |  | > 10 |  |  |  | 
6 | CCC(COC(=O)c1cc(OC)c(OC)c(OC)c1)(c1ccccc1)N(C)C (configuration not stated) [TRIMEBUTINE] | > 30 | > 30 | > 30 | > 30 | > 30 |  | > 30 | 1.7 | > 30 | > 30 |  |  |  | > 30
7 | Nc1cc(-c2ccncc2)c[nH]c1=O [INAMRINONE] | > 10 | > 30 | > 30 | > 30 |  | > 30 |  | > 30 | > 30 | > 10 | > 10 | > 10 | > 30 | > 10
8 | O=C(O)CCNC(=O)c1ccccc1 [BETAMIPRON] | > 30 | > 30 | > 30 | > 30 | > 30 | > 30 |  | > 30 | > 30 | > 30 |  |  |  | > 30
9 | COc1cc2c(cc1OC)C(CCc1ccc(Cl)cc1)N(C)CC2 (configuration not stated) [METHOPHOLINE] | > 10 |  |  |  |  | > 30 | > 10 |  | > 30 | > 30 | > 10 | > 10 | > 30 | > 10
10 | COc1ccc(-c2noc(CC(=O)O)c2-c2ccc(OC)cc2)cc1 [MOFEZOLAC] | > 30 | > 30 | > 30 | > 30 | > 30 |  | > 30 | > 30 | > 30 | > 30 |  |  |  | 
11 | NC(=O)CN1CCCC1=O | > 30 | > 30 | > 30 | > 30 | > 30 |  |  | > 30 | > 30 | > 30 |  |  |  | 
12 | CCN(CC)C(=O)Nc1ccc(OCC(O)CNC(C)(C)C)c(C(C)=O)c1 (configuration not stated) [CELIPROLOL] | > 30 | > 30 | > 30 | > 30 | > 30 | > 30 | > 30 | 17 | > 30 | > 30 |  |  |  | > 30
13 | CCN1CCCC1CNC(=O)c1cc(S(=O)(=O)CC)c(N)cc1OC (configuration not stated) [AMISULPRIDE] | 0.71 | > 30 | > 30 | > 30 | > 30 | > 30 |  |  | > 30 |  | > 30 |  |  | > 30
14 | Cc1ncc2n1-c1ccc(Cl)cc1C(c1ccccc1F)=NC2 [MIDAZOLAM] | > 10 | > 30 |  |  |  | > 30 |  | > 30 | > 30 | > 10 | > 10 | > 10 | > 30 | 
15 | CC(=O)[C@@]1(O)CC[C@H]2[C@@H]3C=C(Cl)C4=CC(=O)[C@@H]5C[C@@H]5[C@]4(C)[C@H]3CC[C@@]21C [CYPROTERONE] | > 10 |  |  |  |  | > 30 | > 10 | > 30 | > 10 | > 10 | > 10 | > 10 | > 10 | > 10
16 | CCCCCC(=O)O[C@]1(C(C)=O)CC[C@H]2[C@@H]3CCC4=CC(=O)CC[C@]4(C)[C@H]3CC[C@@]21C [HYDROXYPROGESTERONE CAPROATE] | > 30 | > 30 | > 30 | > 30 |  | > 30 | > 30 | > 30 | > 30 | 28.1 | > 30 | > 30 | > 30 | 
17 | CC1=C(C)C(=O)C(C(CCCCCC(=O)O)c2ccccc2)=C(C)C1=O (configuration not stated) [SERATRODAST] | > 30 |  |  |  |  | > 30 | > 30 | > 30 | > 30 | > 30 | > 30 | > 30 | > 30 | 
